Laboratory results taken from patent publication US6503881B2 (priority 1996, dated 2003).
Where two headings read alike, the source gives them in different places.

System: bacterial isolates
Details: for PIC: with Gentamicin

W R I W K P K W R L P K W [MBI 11D18CN]
Gentamicin MIC + Peptide (A. baumannii ABI001): 16 µg/mL
Peptide MIC + Gentamicin (A. baumannii ABI001): 0.5 µg/mL
Peptide MIC + Tobramycin (A. baumannii ABI001): 4 µg/mL
Peptide MIC Alone (A. baumannii ABI001): 64 µg/mL
Tobramycin MIC + Peptide (A. baumannii ABI001): 4 µg/mL
Gentamicin MIC + Peptide (A. baumannii ABI002): 8 µg/mL
Peptide MIC + Gentamicin (A. baumannii ABI002): 2 µg/mL
Peptide MIC + Tobramycin (A. baumannii ABI002): 0.5 µg/mL
Peptide MIC Alone (A. baumannii ABI002): 16 µg/mL
Tobramycin MIC + Peptide (A. baumannii ABI002): 4 µg/mL
Peptide MIC + Piperacillin (A. calcoaceticus 3): 8 µg/mL
Peptide MIC Alone (A. calcoaceticus 3): 32 µg/mL
Piperacillin MIC + Peptide (A. calcoaceticus 3): 8 µg/mL
Peptide MIC + Piperacillin (E. cloacae 9): 16 µg/mL
Peptide MIC Alone (E. cloacae 9): 64 µg/mL
Piperacillin MIC + Peptide (E. cloacae 9): 16 µg/mL
Peptide MIC + Piperacillin (E. cloacae 10): 8 µg/mL
Peptide MIC Alone (E. cloacae 10): 32 µg/mL
Piperacillin MIC + Peptide (E. cloacae 10): 64 µg/mL
Gentamicin MIC + Peptide (E. coli ECO006): 16 µg/mL
Peptide MIC + Gentamicin (E. coli ECO006): 0.125 µg/mL
Mupirocin MIC + Peptide (E. coli SBECO1): 30 µg/mL
Peptide MIC + Mupirocin (E. coli SBECO1): 0.125 µg/mL
Peptide MIC Alone (E. coli SBECO1 (Mupirocin section)): 2 µg/mL
Mupirocin MIC + Peptide (E. coli SBECO2): 30 µg/mL
Peptide MIC + Mupirocin (E. coli SBECO2): 0.5 µg/mL
Peptide MIC Alone (E. coli SBECO2 (Mupirocin section)): 16 µg/mL
Peptide MIC + Vancomycin (E. faecalis EFS001): 2 µg/mL
Peptide MIC Alone (E. faecalis EFS001): 8 µg/mL
Vancomycin MIC + Peptide (E. faecalis EFS001): 0.125 µg/mL
Peptide MIC + Vancomycin (E. faecalis EFS004): 2 µg/mL
Peptide MIC Alone (E. faecalis EFS004): 8 µg/mL
Vancomycin MIC + Peptide (E. faecalis EFS004): 0.5 µg/mL
Gentamicin MIC + Peptide (E. faecalis EFS008): 8 µg/mL
Peptide MIC + Gentamicin (E. faecalis EFS008): 0.125 µg/mL
Peptide MIC + Vancomycin (E. faecalis EFS011): 0.125 µg/mL
Peptide MIC Alone (E. faecalis EFS011): 64 µg/mL
Vancomycin MIC + Peptide (E. faecalis EFS011): 32 µg/mL
Peptide MIC + Vancomycin (E. faecalis EFS012): 2 µg/mL
Peptide MIC Alone (E. faecalis EFS012): 16 µg/mL
Vancomycin MIC + Peptide (E. faecalis EFS012): 64 µg/mL
Peptide MIC + Vancomycin (E. faecalis EFS014): 0.5 µg/mL
Peptide MIC Alone (E. faecalis EFS014): 4 µg/mL
Vancomycin MIC + Peptide (E. faecalis EFS014): 4 µg/mL
Gentamicin MIC + Peptide (E. faecium EFM004): 8 µg/mL
Peptide MIC + Gentamicin (E. faecium EFM004): 0.125 µg/mL
Peptide MIC + Vancomycin (E. faecium EFM004): 2 µg/mL
Peptide MIC Alone (E. faecium EFM004): 8 µg/mL
Vancomycin MIC + Peptide (E. faecium EFM004): 64 µg/mL
Peptide MIC + Vancomycin (E. faecium EFM009): 0.125 µg/mL
Peptide MIC Alone (E. faecium EFM009): 8 µg/mL
Vancomycin MIC + Peptide (E. faecium EFM009): 32 µg/mL
Peptide MIC + Vancomycin (E. faecium EFM010): 0.25 µg/mL
Peptide MIC Alone (E. faecium EFM010): 8 µg/mL
Vancomycin MIC + Peptide (E. faecium EFM010): 64 µg/mL
Peptide MIC + Vancomycin (E. faecium EFM011): 2 µg/mL
Peptide MIC Alone (E. faecium EFM011): 8 µg/mL
Vancomycin MIC + Peptide (E. faecium EFM011): 64 µg/mL
Peptide MIC + Piperacillin (H. influenzae 3): 8 µg/mL
Peptide MIC Alone (H. influenzae 3): >128 µg/mL
Piperacillin MIC + Peptide (H. influenzae 3): 0.25 µg/mL
Peptide MIC + Piperacillin (H. influenzae SB1): 4 µg/mL
Peptide MIC Alone (H. influenzae SB1): >128 µg/mL
Piperacillin MIC + Peptide (H. influenzae SB1): 0.25 µg/mL
Gentamicin MIC + Peptide (K. pneumonia KP020): 32 µg/mL
Peptide MIC + Gentamicin (K. pneumonia KP020): 0.125 µg/mL
Peptide MIC Alone (K. pneumonia KP020 (Gentamicin section)): 32 µg/mL
Peptide MIC + Piperacillin (P. aeruginosa 23): 8 µg/mL
Peptide MIC Alone (P. aeruginosa 23): 64 µg/mL
Piperacillin MIC + Peptide (P. aeruginosa 23): 32 µg/mL
Peptide MIC + Piperacillin (P. aeruginosa 41): 16 µg/mL
Peptide MIC Alone (P. aeruginosa 41): >128 µg/mL
Piperacillin MIC + Peptide (P. aeruginosa 41): 32 µg/mL
Mupirocin MIC + Peptide (P. aeruginosa PA4): 30 µg/mL
Peptide MIC + Mupirocin (P. aeruginosa PA4): 64 µg/mL
Peptide MIC Alone (P. aeruginosa PA4 (Mupirocin section)): 128 µg/mL
Gentamicin MIC + Peptide (P. aeruginosa PA022): 8 µg/mL
Peptide MIC + Gentamicin (P. aeruginosa PA022): 0.125 µg/mL
Peptide MIC Alone (P. aeruginosa PA022 (Gentamicin section)): 8 µg/mL
Ciprofloxacin MIC + Peptide (P. aeruginosa PA24): 4 µg/mL
Peptide MI + Ciprofloxacin (P. aeruginosa PA24): 16 µg/mL
Peptide MI Alone (P. aeruginosa PA24 (Ciprofloxacin section)): >128 µg/mL
Gentamicin MIC + Peptide (P. aeruginosa PA041): 0.125 µg/mL
Peptide MIC + Gentamicin (P. aeruginosa PA041): 8 µg/mL
Peptide MIC Alone (P. aeruginosa PA041 (Gentamicin section)): 64 µg/mL
Ciprofloxacin MIC + Peptide (P. aeruginosa PA77): 0.5 µg/mL
Peptide MI + Ciprofloxacin (P. aeruginosa PA77): 32 µg/mL
Peptide MI Alone (P. aeruginosa PA77 (Ciprofloxacin section)): 128 µg/mL
Mupirocin MIC + Peptide (P. aeruginosa SBPA1): 100 µg/mL
Peptide MIC + Mupirocin (P. aeruginosa SBPA1): 32 µg/mL
Peptide MIC Alone (P. aeruginosa SBPA1 (Mupirocin section)): 128 µg/mL
FIC (Piperacillin + peptide, A. calcoaceticus 3): 0.38
FIC (Piperacillin + peptide, E. cloacae 9): 0.31
FIC (Piperacillin + peptide, E. cloacae 10): 0.50
FIC (Piperacillin + peptide, H. influenzae 3): 0.53
FIC (Piperacillin + peptide, H. influenzae SB1): 0.52
FIC (Piperacillin + peptide, P. aeruginosa 23): 0.38
FIC (Piperacillin + peptide, P. aeruginosa 41): 0.56
FIC (Piperacillin + peptide, S. aureus 19 MRSA): 0.38
FIC (Piperacillin + peptide, S. aureus SB2MRSA): 0.50
FIC (Piperacillin + peptide, S. maltophilia 2): 0.50
FIC (Piperacillin + peptide, S. marcescens 1): 0.14
Peptide MIC + Piperacillin (S. aureus 19 MRSA): 1 µg/mL
Peptide MIC Alone (S. aureus 19 MRSA): 4 µg/mL
Piperacillin MIC + Peptide (S. aureus 19 MRSA): 16 µg/mL
Gentamicin MIC + Peptide (S. aureus SA014 MRSA): 2 µg/mL
Peptide MIC + Gentamicin (S. aureus SA014 MRSA): 0.125 µg/mL
Peptide MIC Alone (S. aureus SA014 MRSA (Gentamicin section)): 2 µg/mL
Peptide MIC + Tobramycin (S. aureus SA018 MRSA): 16 µg/mL
Peptide MIC Alone (S. aureus SA018 MRSA): 32 µg/mL
Tobramycin MIC + Peptide (S. aureus SA018 MRSA): 4 µg/mL
Gentamicin MIC + Peptide (S. aureus SA025 MRSA): 1 µg/mL
Peptide MIC + Gentamicin (S. aureus SA025 MRSA): 0.125 µg/mL
Peptide MIC Alone (S. aureus SA025 MRSA (Gentamicin section)): 1 µg/mL
Peptide MIC + Piperacillin (S. aureus SB2MRSA): 0.5 µg/mL
Peptide MIC Alone (S. aureus SB2MRSA): 2 µg/mL
Piperacillin MIC + Peptide (S. aureus SB2MRSA): 32 µg/mL
Gentamicin MIC + Peptide (S. epidermidis SE071): 4 µg/mL
Peptide MIC + Gentamicin (S. epidermidis SE071): 0.125 µg/mL
Peptide MIC Alone (S. epidermidis SE071 (Gentamicin section)): 8 µg/mL
Gentamicin MIC + Peptide (S. epidermidis SE074): 4 µg/mL
Peptide MIC + Gentamicin (S. epidermidis SE074): 0.125 µg/mL
Peptide MIC Alone (S. epidermidis SE074 (Gentamicin section)): 4 µg/mL
Peptide MIC + Tobramycin (S. haemolyticus SHA001): 1 µg/mL
Peptide MIC Alone (S. haemolyticus SHA001): 2 µg/mL
Tobramycin MIC + Peptide (S. haemolyticus SHA001): 0.125 µg/mL
Peptide MIC + Piperacillin (S. maltophilia 2): 8 µg/mL
Peptide MIC Alone (S. maltophilia 2): 32 µg/mL
Piperacillin MIC + Peptide (S. maltophilia 2): 16 µg/mL
Gentamicin MIC + Peptide (S. maltophilia SMA016): 16 µg/mL
Peptide MIC + Gentamicin (S. maltophilia SMA016): 16 µg/mL
Peptide MIC Alone (S. maltophilia SMA016 (Gentamicin section)): 64 µg/mL
Gentamicin MIC + Peptide (S. maltophilia SMA019): 4 µg/mL
Peptide MIC + Gentamicin (S. maltophilia SMA019): 0.5 µg/mL
Peptide MIC Alone (S. maltophilia SMA019 (Gentamicin section)): 8 µg/mL
Peptide MIC + Tobramycin (S. maltophilia SMA027): 16 µg/mL
Peptide MIC Alone (S. maltophilia SMA027): >128 µg/mL
Tobramycin MIC + Peptide (S. maltophilia SMA027): 4 µg/mL
Peptide MIC + Tobramycin (S. maltophilia SMA029): 4 µg/mL
Peptide MIC Alone (S. maltophilia SMA029): 32 µg/mL
Tobramycin MIC + Peptide (S. maltophilia SMA029): 4 µg/mL
Peptide MIC + Piperacillin (S. marcescens 1): 4 µg/mL
Peptide MIC Alone (S. marcescens 1): >128 µg/mL
Piperacillin MIC + Peptide (S. marcescens 1): 8 µg/mL
Mupirocin MIC + Peptide (S. marcescens SBSM1): 100 µg/mL
Peptide MIC + Mupirocin (S. marcescens SBSM1): 16 µg/mL
Peptide MIC Alone (S. marcescens SBSM1 (Mupirocin section)): >128 µg/mL
Mupirocin MIC + Peptide (S. marcescens SBSM2): 100 µg/mL
Peptide MIC + Mupirocin (S. marcescens SBSM2): 64 µg/mL
Peptide MIC Alone (S. marcescens SBSM2 (Mupirocin section)): >128 µg/mL
FIC (Tobramycin + peptide, A. baumannii ABI001): 0.31
FIC (Tobramycin + peptide, A. baumannii ABI002): 0.53
FIC (Tobramycin + peptide, S. aureus SA018 MRSA): 0.56
FIC (Tobramycin + peptide, S. haemolyticus SHA001): 0.53
FIC (Tobramycin + peptide, S. maltophilia SMA027): 0.19
FIC (Tobramycin + peptide, S. maltophilia SMA029): 0.16
FIC (Vancomycin + peptide, E. faecalis EFS001): 0.38
FIC (Vancomycin + peptide, E. faecalis EFS004): 0.50
FIC (Vancomycin + peptide, E. faecalis EFS011): 0.50
FIC (Vancomycin + peptide, E. faecalis EFS012): 0.38
FIC (Vancomycin + peptide, E. faecalis EFS014): 0.16
FIC (Vancomycin + peptide, E. faecium EFM004): 0.50
FIC (Vancomycin + peptide, E. faecium EFM009): 0.52
FIC (Vancomycin + peptide, E. faecium EFM010): 0.28
FIC (Vancomycin + peptide, E. faecium EFM011): 0.50
FIC (with Ciprofloxacin, P. aeruginosa PA24): 0.31
FIC (with Ciprofloxacin, P. aeruginosa PA77): 0.50
PIC (A. baumannii ABI001): 0.27
PIC (A. baumannii ABI002): 0.56
PIC (E. coli ECO006): 0.27
PIC (E. faecalis EFS008): 0.19
PIC (E. faecium EFM004): 0.05
PIC (K. pneumonia KP020): 0.50
PIC (P. aeruginosa PA022): 0.52
PIC (P. aeruginosa PA041): 0.14
PIC (S. aureus SA014 MRSA): 0.13
PIC (S. aureus SA025 MRSA): 0.14
PIC (S. epidermidis SE071): 0.27
PIC (S. epidermidis SE074): 0.09
PIC (S. maltophilia SMA016): 0.38
PIC (S. maltophilia SMA019): 0.19
FIC (with Mupirocin, E. coli SBECO1): 0.36
FIC (with Mupirocin, E. coli SBECO2): 0.06
FIC (with Mupirocin, P. aeruginosa PA4): 0.53
FIC (with Mupirocin, P. aeruginosa SBPA1): 0.35
FIC (with Mupirocin, S. marcescens SBSM1): 0.16
FIC (with Mupirocin, S. marcescens SBSM2): 0.35
